Some test systems named below: KM12; HT-29; HOP-62; MCF7; ACHN; SK-MEL-2; OVCAR-8; MDA-N; SK-OV-3; IGROV-1; PC-3; A498; NCI-H23; U-251; HL-60; OVCAR-5; SW-620; HOP-92; SF-539; 786-0.
Assay in all cases: DTP human tumour cell line panel, 48 h

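Protocol summary: plate cells (96-well), add compound at 5 concentrations, incubate 48 h, interpolate endpoints linearly. GI50 = concentration required for 50% inhibition of growth.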 Active and inactive are the calls of the source. Cut-off read from the data, not from the text of the source: active = GI50 up to about 1.1 µM and inactive = higher.

On to `CCOC(=O)c1csc(NC(=O)CN2CCN(c3ccccc3)CC2)n1`, for which the GI50 with KM12, with HT-29, in the experiment with HOP-62, with MCF7, in the experiment on ACHN and with SK-MEL-2 was > 100 µM (inactive) in each case. In addition, the GI50 was > 100 µM (inactive) in the experiment with OVCAR-8; > 100 µM (inactive) in the experiment with MDA-N; > 100 µM (inactive) in the experiment with SK-OV-3; 85.9 µM (inactive) in the experiment with IGROV-1; > 100 µM (inactive) in the experiment with PC-3; > 100 µM (inactive) in the experiment with A498. The GI50 in the experiment with NCI-H23 is > 100 µM (inactive); with U-251, > 100 µM (inactive); in the experiment with HL-60, 70.6 µM (inactive); in the experiment on OVCAR-5, > 100 µM (inactive); in the experiment with SW-620, > 100 µM (inactive); with HOP-92, > 100 µM (inactive).

For the molecule `N#Cc1c(N)c2c(c(-c3ccccc3)c1-c1ccccc1)C(=O)N(O)C2=O`, the GI50 in the experiment on KM12 is 29.6 µM (inactive); in the experiment on MCF7 it was 46.1 µM (inactive); in the experiment with SF-539, 66.5 µM (inactive); in the experiment with ACHN, > 100 µM (inactive); in the experiment on SK-MEL-2, 41 µM (inactive); in the experiment with OVCAR-8, > 100 µM (inactive). For the same molecule, the GI50 was 82 µM (inactive) in the experiment on MDA-N; 19.5 µM (inactive) in the experiment on IGROV-1; 14.1 µM (inactive) in the experiment with PC-3; 47.1 µM (inactive) in the experiment on 786-0; 37.8 µM (inactive) with A498; 94.6 µM (inactive) with U-251. Besides, the GI50 was 53.7 µM (inactive) in the experiment with HL-60, 63 µM (inactive) in the experiment with OVCAR-5, 96.8 µM (inactive) in the experiment with SW-620 and 64.1 µM (inactive) in the experiment with HOP-92.

`CC(O[Si](c1ccccc1)(c1ccccc1)C(C)(C)C)[C@H](NC(=O)OC(C)(C)C)C(=O)O` (some centres not stated): the GI50 in the experiment on KM12 is 35.3 µM (inactive); with HT-29, 32.2 µM (inactive); in the experiment on HOP-62, 49.8 µM (inactive); in the experiment on MCF7, 27.5 µM (inactive); in the experiment with ACHN, 30.8 µM (inactive); with OVCAR-8, 42 µM (inactive). Besides, the GI50 in the experiment on MDA-N is 38.7 µM (inactive); in the experiment with SK-OV-3, 30.4 µM (inactive); in the experiment on IGROV-1, 20.6 µM (inactive); in the experiment with PC-3, 26.6 µM (inactive); in the experiment on 786-0, 42.4 µM (inactive); in the experiment on A498, 82.6 µM (inactive). Further, the GI50 is 33 µM (inactive) with NCI-H23; 33.1 µM (inactive) with U-251; 27.3 µM (inactive) in the experiment with HL-60; 75.3 µM (inactive) in the experiment on OVCAR-5; 29.4 µM (inactive) in the experiment on SW-620; 29.9 µM (inactive) in the experiment on HOP-92.

As to `O=C(NC(C(F)(F)F)(C(F)(F)F)P(=O)(Cc1ccccc1)Cc1ccccc1)C(C(F)(F)F)C(F)(F)F`, the GI50 was 19.5 µM (inactive) in the experiment on KM12; 19.8 µM (inactive) in the experiment with HT-29; 20.6 µM (inactive) in the experiment with HOP-62; 12.2 µM (inactive) in the experiment on MCF7; 20.7 µM (inactive) in the experiment with SF-539; 19.7 µM (inactive) in the experiment on ACHN. Moreover, the GI50 is 26.4 µM (inactive) with SK-MEL-2; 22.3 µM (inactive) with OVCAR-8; 19.5 µM (inactive) with MDA-N; 31.8 µM (inactive) in the experiment on SK-OV-3; 18.5 µM (inactive) with IGROV-1; 21.5 µM (inactive) in the experiment on PC-3. Besides, the GI50 is 17.2 µM (inactive) with 786-0; 17.3 µM (inactive) in the experiment with A498; 19.7 µM (inactive) in the experiment with NCI-H23; 17.6 µM (inactive) with U-251; 22.4 µM (inactive) in the experiment with HL-60; 22.3 µM (inactive) with OVCAR-5. In the experiment with SW-620, the GI50 was 44.4 µM (inactive).

Take `Cc1nc(Cl)c2sc(=S)n(-c3ccc(F)cc3)c2n1`: the GI50 in the experiment with KM12 was 12.7 µM (inactive); in the experiment on HT-29 it was 2.28 µM (inactive); in the experiment with HOP-62, 2.22 µM (inactive); in the experiment on MCF7 it was 2.84 µM (inactive); in the experiment with ACHN, 13.9 µM (inactive); in the experiment with SK-MEL-2, 12.8 µM (inactive). For the same molecule, the GI50 in the experiment with OVCAR-8 is 14.6 µM (inactive); in the experiment on MDA-N, 1.87 µM (inactive); in the experiment with SK-OV-3, 13.2 µM (inactive); with IGROV-1, 1.74 µM (inactive); in the experiment on PC-3, 19.9 µM (inactive); in the experiment with 786-0, 2.45 µM (inactive). Besides, the GI50 was 1.58 µM (inactive) with A498; 1.27 µM (inactive) in the experiment with NCI-H23; 5.06 µM (inactive) with U-251; 7.16 µM (inactive) in the experiment with HL-60; 10.8 µM (inactive) in the experiment on OVCAR-5; 3.7 µM (inactive) in the experiment on SW-620. The GI50 in the experiment on HOP-92 was 14.4 µM (inactive).

As for `COc1cc(Oc2nc3ccc(C(F)(F)F)cc3nc2-c2ccccc2)cc(OC)c1OC`, the GI50 in the experiment on KM12 is 66.2 µM (inactive); with HT-29, 21.2 µM (inactive); in the experiment on HOP-62, 11 µM (inactive); in the experiment on MCF7, 8.18 µM (inactive); with SF-539, 19.7 µM (inactive); in the experiment on ACHN it was 11.6 µM (inactive). In addition, the GI50 was 45.8 µM (inactive) with OVCAR-8; 40.7 µM (inactive) in the experiment on MDA-N; 12.4 µM (inactive) in the experiment with SK-OV-3; 58.2 µM (inactive) in the experiment with IGROV-1; 22.6 µM (inactive) in the experiment with PC-3; 3.21 µM (inactive) in the experiment with 786-0. In addition, the GI50 in the experiment on A498 was 32.9 µM (inactive); with NCI-H23 it was 35.4 µM (inactive); with U-251, 13 µM (inactive); in the experiment with HL-60, 31.8 µM (inactive); with OVCAR-5, > 100 µM (inactive); in the experiment on SW-620 it was > 10 µM (inactive). Besides, the GI50 in the experiment with HOP-92 is 14.5 µM (inactive).

`COc1ccc2nc3c([N+](=O)[O-])ccc(NCCCN(C)C)c3c(N)c2c1`: the GI50 was 1.51 µM (inactive) with KM12; 0.845 µM (active) in the experiment on HT-29; 1.78 µM (inactive) in the experiment on HOP-62; 1.15 µM (inactive) with MCF7; 1.78 µM (inactive) in the experiment with SF-539; 1.14 µM (inactive) in the experiment on ACHN. Also, the GI50 with SK-MEL-2 is 2.39 µM (inactive); in the experiment with OVCAR-8, 1.75 µM (inactive); in the experiment with MDA-N it was 1.82 µM (inactive); with SK-OV-3, 1.45 µM (inactive); in the experiment on IGROV-1, 1.21 µM (inactive); in the experiment on PC-3, 1.4 µM (inactive). In addition, the GI50 with 786-0 is 1.22 µM (inactive); in the experiment on NCI-H23, 1.99 µM (inactive); in the experiment on U-251, 1.57 µM (inactive); with HL-60, 1.61 µM (inactive); in the experiment on OVCAR-5 it was 1.43 µM (inactive); in the experiment with SW-620, 0.405 µM (active). In the experiment with HOP-92, the GI50 is 1.87 µM (inactive).

With `CCC1c2[nH]c3ccccc3c2C[C@H]2C(=O)NC(C)C(=O)N12` (some centres not stated), the GI50 with KM12, in the experiment with HT-29, with HOP-62, with MCF7, with ACHN and with SK-MEL-2 was > 100 µM (inactive) each time. The GI50 in the experiment on OVCAR-8, in the experiment on MDA-N, in the experiment on SK-OV-3, with IGROV-1, with PC-3 and in the experiment on 786-0 was > 100 µM (inactive) each time. Further, the GI50 with A498, with NCI-H23, in the experiment with U-251, in the experiment with HL-60, in the experiment with OVCAR-5 and in the experiment on SW-620 was > 100 µM (inactive) throughout. The GI50 in the experiment on HOP-92 is > 100 µM (inactive).

Consider `O=[N+]([O-])c1c(O)c2nonc2c2nn(-c3ccccc3)nc12`, for which the GI50 in the experiment with KM12 was > 100 µM (inactive); with HT-29, > 100 µM (inactive); in the experiment on HOP-62, > 100 µM (inactive); in the experiment with MCF7, 20.5 µM (inactive); in the experiment on SF-539 it was > 100 µM (inactive); in the experiment with ACHN it was > 100 µM (inactive). Besides, the GI50 in the experiment with SK-MEL-2, in the experiment with OVCAR-8, in the experiment with MDA-N, in the experiment on SK-OV-3, in the experiment with IGROV-1 and in the experiment on PC-3 was > 100 µM (inactive) throughout. The GI50 in the experiment with 786-0, in the experiment on NCI-H23, in the experiment on U-251, in the experiment with HL-60, in the experiment on OVCAR-5 and in the experiment on SW-620 was > 100 µM (inactive) in each case. The GI50 in the experiment with HOP-92 is > 100 µM (inactive).

Turning to `Cc1c(Cl)c(S(N)(=O)=O)cc2c1N=CNS2(=O)=O`, the GI50 in the experiment with KM12, with HT-29, in the experiment with HOP-62, with MCF7, in the experiment on ACHN and in the experiment with OVCAR-8 was > 100 µM (inactive) in each case. For the same molecule, the GI50 with MDA-N, with SK-OV-3, in the experiment with IGROV-1, in the experiment on PC-3, with 786-0 and in the experiment on A498 was > 100 µM (inactive) each time. In addition, the GI50 in the experiment with NCI-H23, in the experiment on U-251, in the experiment on OVCAR-5, in the experiment on SW-620 and in the experiment with HOP-92 was > 100 µM (inactive) each time.

With `CON(C)C(=O)C(C)N(Cc1ccccc1)Cc1ccccc1` (configuration not stated), the GI50 with KM12 was > 100 µM (inactive); in the experiment on HT-29, 79.1 µM (inactive); with HOP-62, 23.3 µM (inactive); in the experiment on MCF7 it was 58.3 µM (inactive); in the experiment on SF-539, > 100 µM (inactive); in the experiment with ACHN, 74.8 µM (inactive). Also, the GI50 with OVCAR-8 was > 100 µM (inactive); with MDA-N, > 100 µM (inactive); with SK-OV-3, 66.8 µM (inactive); in the experiment on IGROV-1 it was 88.5 µM (inactive); with PC-3, 19.1 µM (inactive); with 786-0, > 100 µM (inactive). The GI50 with A498 is > 100 µM (inactive); with NCI-H23 it was 46.3 µM (inactive); in the experiment with U-251 it was > 100 µM (inactive); in the experiment with HL-60 it was 46.9 µM (inactive); in the experiment on OVCAR-5, > 100 µM (inactive); in the experiment with SW-620, > 100 µM (inactive). In addition, the GI50 in the experiment on HOP-92 was > 100 µM (inactive).

In general, GI50 refers to the concentration at which growth is held to half of that of the control.

Values taken from ChEMBL document CHEMBL1201862, “PubChem BioAssay data set” (2004).
